Source: article PMC4058118, “Impact of Wines and Wine Constituents on Cyclooxygenase-1, Cyclooxygenase-2, and 5-Lipoxygenase Catalytic Activity” (Mediators of Inflammation, 2014)
Where two headings read alike, the source gives them in different places.

Key:
[1] = target: T1, COX-1 from ram seminal vesicles (Ovis aries, UniProt P05979); assay: COX-1 assay (PGE2 formation, ELISA); type: biochemical
T1 construct: COX-1 from ram seminal vesicles; purchased Sigma-Aldrich (Czech Republic); host or cells: ram seminal vesicles (tissue-derived enzyme)
T1 sequence (P05979 25-600): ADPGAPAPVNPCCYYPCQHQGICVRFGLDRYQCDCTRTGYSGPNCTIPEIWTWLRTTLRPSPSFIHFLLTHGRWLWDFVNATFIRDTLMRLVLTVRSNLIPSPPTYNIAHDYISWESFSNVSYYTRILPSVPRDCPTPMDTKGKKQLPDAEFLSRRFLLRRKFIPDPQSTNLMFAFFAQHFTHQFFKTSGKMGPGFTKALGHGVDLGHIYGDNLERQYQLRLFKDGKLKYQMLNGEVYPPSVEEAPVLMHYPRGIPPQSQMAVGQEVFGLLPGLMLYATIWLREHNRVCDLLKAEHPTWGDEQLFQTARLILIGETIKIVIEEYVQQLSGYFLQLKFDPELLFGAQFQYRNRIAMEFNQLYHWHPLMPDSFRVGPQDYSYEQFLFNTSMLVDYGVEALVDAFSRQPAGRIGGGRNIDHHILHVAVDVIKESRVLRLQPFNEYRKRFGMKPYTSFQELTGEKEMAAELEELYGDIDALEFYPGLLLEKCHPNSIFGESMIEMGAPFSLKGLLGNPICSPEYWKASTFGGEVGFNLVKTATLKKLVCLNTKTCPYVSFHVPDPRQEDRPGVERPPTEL

human recombinant COX-2 = target: T2, human recombinant COX-2 (Homo sapiens, UniProt P35354); assay: COX-2 assay (PGE2 formation, ELISA); type: biochemical; conditions: for IC50: read-out: IC50 COX-2 (dash)
T2 construct: purchased Sigma-Aldrich (Czech Republic)
T2 sequence (P35354 18-604): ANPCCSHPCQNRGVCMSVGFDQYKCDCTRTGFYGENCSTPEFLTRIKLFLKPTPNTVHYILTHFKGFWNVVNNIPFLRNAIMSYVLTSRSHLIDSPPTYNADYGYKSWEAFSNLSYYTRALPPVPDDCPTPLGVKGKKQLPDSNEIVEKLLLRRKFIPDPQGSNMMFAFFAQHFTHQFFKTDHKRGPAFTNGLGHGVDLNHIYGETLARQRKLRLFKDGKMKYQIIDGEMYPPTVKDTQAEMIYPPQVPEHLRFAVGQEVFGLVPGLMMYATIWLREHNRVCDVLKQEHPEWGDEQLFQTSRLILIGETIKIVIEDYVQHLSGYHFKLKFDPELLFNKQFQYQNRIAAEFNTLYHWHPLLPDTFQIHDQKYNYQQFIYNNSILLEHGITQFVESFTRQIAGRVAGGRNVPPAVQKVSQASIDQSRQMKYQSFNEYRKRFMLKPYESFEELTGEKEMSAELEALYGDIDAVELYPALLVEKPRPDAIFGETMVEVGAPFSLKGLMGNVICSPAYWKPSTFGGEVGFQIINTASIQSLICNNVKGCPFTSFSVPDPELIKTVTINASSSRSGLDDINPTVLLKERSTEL

5-LOX = target: T3, 5-LOX (Homo sapiens, UniProt P09917); assay: 5-LOX assay (LTB4 formation in cells from buffy coat, ELISA); type: cell-based
T3 construct: endogenous in cells; host or cells: leukocytes isolated from buffy coat of healthy donors
T3 sequence (P09917 1-674): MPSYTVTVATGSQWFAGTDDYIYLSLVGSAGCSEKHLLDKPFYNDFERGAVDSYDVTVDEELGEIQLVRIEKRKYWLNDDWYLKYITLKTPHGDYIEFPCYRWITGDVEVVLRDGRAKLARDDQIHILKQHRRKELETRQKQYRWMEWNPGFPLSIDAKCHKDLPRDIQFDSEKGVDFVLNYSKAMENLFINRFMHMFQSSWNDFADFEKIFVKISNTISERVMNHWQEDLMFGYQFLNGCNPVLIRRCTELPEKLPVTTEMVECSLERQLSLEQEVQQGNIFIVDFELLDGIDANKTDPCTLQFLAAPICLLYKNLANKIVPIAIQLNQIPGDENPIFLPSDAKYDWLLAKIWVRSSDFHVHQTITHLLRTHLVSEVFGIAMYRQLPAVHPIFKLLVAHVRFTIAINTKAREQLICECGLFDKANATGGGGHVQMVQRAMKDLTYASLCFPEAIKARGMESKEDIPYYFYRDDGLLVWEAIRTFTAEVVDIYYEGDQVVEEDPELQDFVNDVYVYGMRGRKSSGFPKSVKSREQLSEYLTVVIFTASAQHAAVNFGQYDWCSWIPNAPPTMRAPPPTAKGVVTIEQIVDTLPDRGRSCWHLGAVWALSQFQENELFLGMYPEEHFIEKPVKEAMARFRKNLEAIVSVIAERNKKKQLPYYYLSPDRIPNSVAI

COX-2 = conditions: cited from earlier work
COX-1 = conditions: cited from earlier work
[2] = mean ± SD, read-out: IC50 ± SD COX-1
[3] = dash = IC50 > 50 μM, read-out: IC50 COX-1 (dash)
[4] = mean ± SD, read-out: IC50 ± SD 5-LOX

## O=c1c(O)c(-c2ccc(O)c(O)c2)oc2cc(O)cc(O)c12 [Quercetin, quercetin]
[1]; [2]
  IC50: 43.8 µM
[1]; read-out: IC50 COX-1 (dash)
  IC50: > 50 µM
Human recombinant COX-2
  IC50: > 50 µM

## O=c1cc(-c2ccc(O)c(O)c2)oc2cc(O)cc(O)c12 [Luteolin, luteolin]
[1]; [3]
  IC50: > 50 µM
5-LOX; [4]
  IC50: 2.25 ± 1.75 µM
Human recombinant COX-2
  IC50: > 50 µM

## Oc1cc(O)cc(/C=C/c2ccc(O)c(O)c2)c1 [Piceatannol, piceatannol]
[1]
  IC50: > 50 µM
5-LOX; [4]
  IC50: 0.76 ± 0.35 µM
COX-2; ref 5 (Murias et al.)
  IC50: 0.0113 µM
COX-2; ref 38 (Lee et al.)
  inhibition of COX-2: no inhibition
Human recombinant COX-2
  IC50: > 50 µM
COX-1; ref 5 (Murias et al.)
  IC50: 4.71 µM
COX-1; ref 38 (Lee et al.)
  inhibition of COX-1: no inhibition
COX-1; ref 39 (Gerhäuser et al.)
  IC50: 81.4 µM

## Oc1ccc(/C=C/c2cc(O)cc(O)c2)cc1 [Resveratrol, trans-resveratrol]
[1]; [2]
  IC50: 2.27 ± 1.17 µM
5-LOX; read-out: IC50 5-LOX (dash)
  IC50: > 50 µM

## O=c1c(O)c(-c2ccc(O)cc2)oc2cc(O)cc(O)c12 [Kaempferol, kaempferol]
[1]; [2]
  IC50: 43.8 ± 18.8 µM
5-LOX; read-out: IC50 5-LOX (dash)
  IC50: > 50 µM
Human recombinant COX-2
  IC50: > 50 µM

## Oc1cc(O)c2c(c1)O[C@H](c1ccc(O)c(O)c1)[C@@H](O)C2 [(+)-catechin]
[1]; 50 μM concentration
  COX-1 inhibitory activity: inactive
Human recombinant COX-2; 50 μM concentration
  COX-2 inhibitory activity: inactive

## O=c1c(O)c(-c2cc(O)c(O)c(O)c2)oc2cc(O)cc(O)c12 [Myricetin, myricetin]
[1]; [3]
  IC50: > 50 µM
5-LOX
  IC50: 4.02 ± 2.37 µM
Human recombinant COX-2
  IC50: > 50 µM
